Source: PubChem BioAssay AID330 (DTP/NCI, 2004)
Several values for one entry are separate records, joined by “and”; a condition that tells them apart may be missing. Equal values may be shown once. Toxic doses and inconclusive results are not listed. Rule for the calls: active = survival T/C of 150% or more; inactive = T/C below 125% in these data.

Test system: P388 leukemia ip, CD2F1 mice, survival T/C
Assay: NCI In Vivo Anticancer Drug Screen. Data for tumor model P388 Leukemia (intraperitoneal) in CD2F1 (CDF1) mice
Conditions: endpoint: median survival time, higher = longer survival
Outline: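 Mice carrying the transplanted tumor received test compound or vehicle. Survival was recorded in each group, and the value is the treated-group measurement divided by that of the vehicle-treated control group.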

[1] = dose: 50.0 mg/kg/injection, schedule: Q01DX009 (ip), vehicle: saline with Tween-80
[2] = dose: 100.0 mg/kg/injection, schedule: Q01DX009 (ip), vehicle: saline with Tween-80
[3] = dose: 25.0 mg/kg/injection, schedule: Q01DX009 (ip), vehicle: saline with Tween-80
[4] = dose: 50.0 mg/kg/injection, schedule: Q01DX009 (ip), vehicle: saline
[5] = dose: 100.0 mg/kg/injection, schedule: Q01DX009 (ip), vehicle: saline
[6] = dose: 60.0 mg/kg/injection, schedule: Q01DX005 (ip), vehicle: saline with Tween-80
[7] = dose: 120.0 mg/kg/injection, schedule: Q01DX005 (ip), vehicle: saline with Tween-80
[8] = dose: 240.0 mg/kg/injection, schedule: Q01DX005 (ip), vehicle: saline with Tween-80

Measured: T/C

O=C(NC(CSSCC(NC(=O)c1ccccc1)C(=O)O)C(=O)O)c1ccccc1 (stereo not drawn)
inactive: [1] 109 % of control | [2] 90 % of control | dose: 200.0 mg/kg/injection, schedule: Q01DX009 (ip), vehicle: saline with Tween-80 101 % of control | dose: 400.0 mg/kg/injection, schedule: Q01DX009 (ip), vehicle: saline with Tween-80 93 % of control

O=C1C(NCC(O)CO)=C(N2CC2)C(=O)C(NCC(O)CO)=C1N1CC1 (stereo not drawn)
active: dose: 1.5 mg/kg/injection, schedule: Q01DX009 (ip), vehicle: saline 198 % of control | dose: 3.0 mg/kg/injection, schedule: Q01DX009 (ip), vehicle: saline 227 % of control | dose: 4.0 mg/kg/injection, schedule: Q01DX009 (ip), vehicle: saline 270 % of control

CN(C)c1ccc2nc3ccc(=O)cc-3sc2c1
inactive: dose: 12.5 mg/kg/injection, schedule: Q01DX009 (ip), vehicle: saline with Tween-80 100 % of control | [3] 108 % of control | [1] 108 % of control | [2] 120 % of control and 122 % of control

O=C(Nc1ccc(Cl)cc1)NC1OC(=O)C(Cl)=C1Cl (stereo not drawn)
inactive: dose: 6.25 mg/kg/injection, schedule: Q01DX009 (ip), vehicle: saline 105 % of control | dose: 12.5 mg/kg/injection, schedule: Q01DX009 (ip), vehicle: saline 108 % of control | dose: 25.0 mg/kg/injection, schedule: Q01DX009 (ip), vehicle: saline 106 % of control | [4] 117 % of control | [5] 106 % of control

[CH3][Sn]1([CH3])[O]C2C(O)OC(CO)C(O)C2[O]1 (stereo not drawn)
inactive: dose: 6.25 mg/kg/injection, schedule: Q01DX005 (ip), vehicle: Klucel (hydroxypropylcellulose) (HPC) 108 % of control and 113 % of control | dose: 12.5 mg/kg/injection, schedule: Q01DX005 (ip), vehicle: Klucel (hydroxypropylcellulose) (HPC) 110 % of control and 111 % of control (2×) | dose: 25.0 mg/kg/injection, schedule: Q01DX005 (ip), vehicle: Klucel (hydroxypropylcellulose) (HPC) 109 % of control and 120 % of control and 121 % of control

COC(=O)C1=C(C)NC(c2ccc(OC)cc2OC)C(C(=O)OC)=C1C (stereo not drawn)
inactive: [6] 105 % of control | [7] 102 % of control | [8] 97 % of control

O=c1[nH]c2cc(Cl)ccc2c(CCl)c1Cl
inactive: [3] 110 % of control | [1] 110 % of control

N#CC(C(=O)CCC(=O)NCCc1ccccc1)c1nc2ccccc2s1 (stereo not drawn)
inactive: [6] 103 % of control | [7] 100 % of control | [8] 100 % of control

Cc1ccc(S(=O)(=O)OCC(C)(C)C)cc1
inactive: dose: 50.0 mg/kg/injection, schedule: Q04DX003 (ip), vehicle: Klucel (hydroxypropylcellulose) (HPC) 100 % of control | dose: 100.0 mg/kg/injection, schedule: Q04DX003 (ip), vehicle: Klucel (hydroxypropylcellulose) (HPC) 100 % of control | dose: 200.0 mg/kg/injection, schedule: Q04DX003 (ip), vehicle: Klucel (hydroxypropylcellulose) (HPC) 100 % of control | dose: 400.0 mg/kg/injection, schedule: Q04DX003 (ip), vehicle: Klucel (hydroxypropylcellulose) (HPC) 96 % of control

CC(=O)OC1CC(O)C23COC(O)C1C2CC(O)C1(C)C3C(=O)CC2(C)C(c3ccoc3)CC3OC321 (stereo not drawn)
inactive: dose: 0.25 mg/kg/injection, schedule: Q01DX009 (ip), vehicle: Klucel (hydroxypropylcellulose) (HPC) 103 % of control | dose: 0.5 mg/kg/injection, schedule: Q01DX009 (ip), vehicle: Klucel (hydroxypropylcellulose) (HPC) 99 % of control | dose: 1.0 mg/kg/injection, schedule: Q01DX009 (ip), vehicle: Klucel (hydroxypropylcellulose) (HPC) 111 % of control | dose: 2.0 mg/kg/injection, schedule: Q01DX009 (ip), vehicle: Klucel (hydroxypropylcellulose) (HPC) 90 % of control

CCS/C(C#N)=C(/OC)c1ccccc1Cl
inactive: [1] 89 % of control | [2] 94 % of control

C=CC(=O)NC(C)C(=O)O (stereo not drawn)
inactive: [4] 100 % of control | [5] 99 % of control | dose: 200.0 mg/kg/injection, schedule: Q01DX009 (ip), vehicle: saline 107 % of control

CC1(C)CC(C)(O)N(CCc2ccccc2)C(=S)N1 (stereo not drawn)
inactive: dose: 50.0 mg/kg/injection, schedule: Q01DX005 (ip), vehicle: Klucel (hydroxypropylcellulose) (HPC) 106 % of control | dose: 100.0 mg/kg/injection, schedule: Q01DX005 (ip), vehicle: Klucel (hydroxypropylcellulose) (HPC) 98 % of control | dose: 200.0 mg/kg/injection, schedule: Q01DX005 (ip), vehicle: Klucel (hydroxypropylcellulose) (HPC) 98 % of control
